Measured values published in the Kinase Knowledgebase extract (Sharma et al. 2016).

Legend:
PIK3CD (Human) = PIK3CD (Human) (UniProt O00329); assay: Assessment of PIK3CD Kinase Activity
PIK3CG (human) = PIK3CG (human) (UniProt P48736); assay: Assessment of PIK3CG Kinase Activity
PIK3CA (human) = PIK3CA (human) (UniProt P42336); assay: Assessment of PIK3CA Kinase Activity
PIK3CB (Human) = PIK3CB (Human) (UniProt P42338); assay: Assessment of PIK3CB Kinase Activity
Chain of PIK3CB (Human) (P42338 whole entry, looked up): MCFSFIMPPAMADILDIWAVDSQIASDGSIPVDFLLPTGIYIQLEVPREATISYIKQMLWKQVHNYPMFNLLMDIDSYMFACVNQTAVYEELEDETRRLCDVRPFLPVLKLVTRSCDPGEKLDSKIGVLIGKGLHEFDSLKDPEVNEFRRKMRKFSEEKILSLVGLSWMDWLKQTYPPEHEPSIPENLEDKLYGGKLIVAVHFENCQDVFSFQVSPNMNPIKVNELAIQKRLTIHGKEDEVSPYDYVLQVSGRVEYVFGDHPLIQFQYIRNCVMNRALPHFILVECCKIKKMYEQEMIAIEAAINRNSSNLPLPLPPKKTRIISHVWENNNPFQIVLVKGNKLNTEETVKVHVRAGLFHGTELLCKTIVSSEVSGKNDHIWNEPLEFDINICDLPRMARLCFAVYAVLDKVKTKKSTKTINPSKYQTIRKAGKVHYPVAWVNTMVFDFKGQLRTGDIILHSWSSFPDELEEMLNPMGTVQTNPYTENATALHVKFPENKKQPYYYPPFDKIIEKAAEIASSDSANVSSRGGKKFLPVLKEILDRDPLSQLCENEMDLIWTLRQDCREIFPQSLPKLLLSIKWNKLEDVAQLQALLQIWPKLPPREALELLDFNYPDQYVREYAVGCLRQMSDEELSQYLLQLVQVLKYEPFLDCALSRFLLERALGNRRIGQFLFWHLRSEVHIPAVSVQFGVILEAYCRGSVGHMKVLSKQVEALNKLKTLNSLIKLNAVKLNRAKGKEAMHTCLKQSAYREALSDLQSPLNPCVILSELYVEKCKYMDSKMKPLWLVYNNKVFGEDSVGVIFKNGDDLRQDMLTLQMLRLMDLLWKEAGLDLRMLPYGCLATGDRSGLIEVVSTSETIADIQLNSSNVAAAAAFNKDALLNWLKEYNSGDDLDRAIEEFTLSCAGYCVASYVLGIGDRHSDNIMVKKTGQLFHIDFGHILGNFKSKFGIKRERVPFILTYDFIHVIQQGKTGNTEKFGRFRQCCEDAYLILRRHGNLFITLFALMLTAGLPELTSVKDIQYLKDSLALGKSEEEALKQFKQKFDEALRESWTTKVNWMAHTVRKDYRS

Chain of PIK3CD (Human) (O00329 whole entry, looked up): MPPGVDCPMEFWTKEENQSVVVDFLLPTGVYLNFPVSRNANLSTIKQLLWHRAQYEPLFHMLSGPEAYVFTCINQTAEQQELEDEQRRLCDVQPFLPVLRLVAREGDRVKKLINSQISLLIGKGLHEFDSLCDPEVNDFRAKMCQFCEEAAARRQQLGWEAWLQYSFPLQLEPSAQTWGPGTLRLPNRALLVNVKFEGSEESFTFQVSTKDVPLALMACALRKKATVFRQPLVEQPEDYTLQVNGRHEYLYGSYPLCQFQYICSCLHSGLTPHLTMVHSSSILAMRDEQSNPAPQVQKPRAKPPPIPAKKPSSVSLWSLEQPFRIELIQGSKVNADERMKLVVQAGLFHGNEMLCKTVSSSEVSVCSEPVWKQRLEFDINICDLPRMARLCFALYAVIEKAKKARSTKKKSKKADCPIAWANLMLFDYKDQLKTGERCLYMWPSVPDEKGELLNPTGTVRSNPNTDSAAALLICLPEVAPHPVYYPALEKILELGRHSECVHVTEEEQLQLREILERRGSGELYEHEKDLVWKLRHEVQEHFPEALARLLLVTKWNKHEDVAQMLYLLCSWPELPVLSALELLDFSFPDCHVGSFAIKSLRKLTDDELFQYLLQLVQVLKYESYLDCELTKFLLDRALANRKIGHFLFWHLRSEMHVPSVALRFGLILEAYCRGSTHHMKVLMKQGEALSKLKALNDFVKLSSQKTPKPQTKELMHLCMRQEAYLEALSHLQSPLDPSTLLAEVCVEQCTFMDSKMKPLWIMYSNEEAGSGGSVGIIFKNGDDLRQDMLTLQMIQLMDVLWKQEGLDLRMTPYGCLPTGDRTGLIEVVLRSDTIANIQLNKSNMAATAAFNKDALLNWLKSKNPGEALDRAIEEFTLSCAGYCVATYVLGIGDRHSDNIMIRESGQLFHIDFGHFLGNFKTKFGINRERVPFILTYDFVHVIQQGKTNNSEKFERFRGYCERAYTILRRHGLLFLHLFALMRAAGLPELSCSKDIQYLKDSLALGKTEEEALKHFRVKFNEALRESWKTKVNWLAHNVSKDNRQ
Chain of PIK3CG (human) (P48736 whole entry, looked up): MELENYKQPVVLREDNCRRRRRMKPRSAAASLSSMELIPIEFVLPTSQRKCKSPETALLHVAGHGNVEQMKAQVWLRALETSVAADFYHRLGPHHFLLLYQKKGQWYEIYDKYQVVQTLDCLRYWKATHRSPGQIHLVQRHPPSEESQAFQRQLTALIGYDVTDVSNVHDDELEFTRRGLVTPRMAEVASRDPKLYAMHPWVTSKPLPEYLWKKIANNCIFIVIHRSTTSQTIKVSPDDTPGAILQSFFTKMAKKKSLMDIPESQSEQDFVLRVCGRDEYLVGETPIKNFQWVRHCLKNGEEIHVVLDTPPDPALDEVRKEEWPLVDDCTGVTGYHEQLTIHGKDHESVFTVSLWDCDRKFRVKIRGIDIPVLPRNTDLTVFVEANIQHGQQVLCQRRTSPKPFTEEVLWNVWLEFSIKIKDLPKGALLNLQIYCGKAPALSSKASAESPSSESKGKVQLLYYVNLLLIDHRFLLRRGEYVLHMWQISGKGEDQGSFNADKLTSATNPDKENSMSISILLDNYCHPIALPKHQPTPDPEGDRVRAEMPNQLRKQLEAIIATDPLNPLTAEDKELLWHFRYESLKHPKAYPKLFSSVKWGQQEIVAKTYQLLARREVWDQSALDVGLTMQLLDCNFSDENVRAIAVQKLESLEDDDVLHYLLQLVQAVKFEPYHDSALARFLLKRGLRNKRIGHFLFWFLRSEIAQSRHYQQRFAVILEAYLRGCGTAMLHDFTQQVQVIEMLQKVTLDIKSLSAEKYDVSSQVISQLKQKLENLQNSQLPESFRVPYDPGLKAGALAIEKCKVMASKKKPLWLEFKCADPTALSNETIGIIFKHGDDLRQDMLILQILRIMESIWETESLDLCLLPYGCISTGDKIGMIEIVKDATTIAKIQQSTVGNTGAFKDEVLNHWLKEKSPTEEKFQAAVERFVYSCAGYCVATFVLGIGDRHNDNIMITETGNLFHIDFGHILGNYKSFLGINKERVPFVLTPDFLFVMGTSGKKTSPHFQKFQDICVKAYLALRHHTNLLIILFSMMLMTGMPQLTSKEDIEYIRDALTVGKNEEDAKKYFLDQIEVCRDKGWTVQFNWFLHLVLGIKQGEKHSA
Chain of PIK3CA (human) (P42336 whole entry, looked up): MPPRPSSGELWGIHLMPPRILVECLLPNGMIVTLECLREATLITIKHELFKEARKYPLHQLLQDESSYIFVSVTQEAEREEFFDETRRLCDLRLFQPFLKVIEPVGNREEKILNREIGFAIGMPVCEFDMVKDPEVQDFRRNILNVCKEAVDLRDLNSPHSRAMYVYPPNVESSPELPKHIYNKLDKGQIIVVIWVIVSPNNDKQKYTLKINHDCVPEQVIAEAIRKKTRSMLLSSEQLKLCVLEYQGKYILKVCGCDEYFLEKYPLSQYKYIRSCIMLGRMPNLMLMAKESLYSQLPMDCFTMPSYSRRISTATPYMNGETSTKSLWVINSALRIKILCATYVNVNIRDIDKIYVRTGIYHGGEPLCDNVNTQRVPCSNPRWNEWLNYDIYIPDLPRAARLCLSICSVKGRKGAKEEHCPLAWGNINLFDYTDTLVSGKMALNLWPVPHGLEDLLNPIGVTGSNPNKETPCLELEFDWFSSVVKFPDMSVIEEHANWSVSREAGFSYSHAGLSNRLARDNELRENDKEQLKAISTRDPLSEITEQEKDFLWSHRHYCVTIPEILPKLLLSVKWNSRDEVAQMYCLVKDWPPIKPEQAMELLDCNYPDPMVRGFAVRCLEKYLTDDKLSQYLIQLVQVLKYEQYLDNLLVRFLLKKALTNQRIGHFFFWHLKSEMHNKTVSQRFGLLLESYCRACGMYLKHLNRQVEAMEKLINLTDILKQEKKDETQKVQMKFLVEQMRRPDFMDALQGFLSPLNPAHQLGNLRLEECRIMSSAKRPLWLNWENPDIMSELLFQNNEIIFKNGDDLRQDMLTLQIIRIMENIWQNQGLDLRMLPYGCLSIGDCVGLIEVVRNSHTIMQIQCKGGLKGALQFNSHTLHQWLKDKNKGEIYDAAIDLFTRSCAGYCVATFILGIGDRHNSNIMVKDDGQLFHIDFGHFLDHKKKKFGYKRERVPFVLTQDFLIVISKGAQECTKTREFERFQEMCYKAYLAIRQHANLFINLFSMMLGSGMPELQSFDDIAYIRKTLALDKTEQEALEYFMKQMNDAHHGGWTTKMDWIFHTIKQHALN

Compound	IC50 (PIK3CD (Human))	IC50 (PIK3CG (human))	IC50 (PIK3CA (human))	IC50 (PIK3CB (Human))
CC(C)(NC(=O)c1ccccc1)c1cc2nc(-c3cccc4[nH]ncc34)nc(N3CCOCC3)c2s1	> 100 nM	< 100 nM	< 1000 nM	< 100 nM
c1cc2cc(-c3nc(N4CCOCC4)c4sc(-c5ccc(N6CCOCC6)nc5)cc4n3)cnc2[nH]1	< 100 nM	< 100 nM	< 1000 nM	< 100 nM
c1cc(-c2nc(N3CCOCC3)c3sc(Cn4ccnc4)cc3n2)c2cn[nH]c2c1	> 100 nM	< 100 nM	< 1000 nM	> 100 nM
CC(C)(O)c1cc2nc(-c3cccc4[nH]ncc34)nc(N3CCOCC3)c2s1	> 100 nM	< 100 nM	< 1000 nM	< 100 nM
O=C(NCCN1CCCCC1)c1cc2nc(-c3cccc4[nH]ncc34)nc(N3CCOCC3)c2s1	> 100 nM	< 100 nM	< 1000 nM	> 100 nM
OCCNc1cc2nc(-c3cccc4[nH]ncc34)nc(N3CCOCC3)c2s1	> 100 nM	< 100 nM	< 1000 nM	> 100 nM
CS(=O)(=O)c1cccc(C(=O)NCc2cc3nc(-c4cccc5[nH]ncc45)nc(N4CCOCC4)c3s2)c1	> 100 nM	< 100 nM	< 1000 nM	< 100 nM
C[C@H](O)CNCc1cc2nc(-c3cccc4[nH]ncc34)nc(N3CCOCC3)c2s1	> 100 nM	< 100 nM	< 1000 nM	> 100 nM
O=C(NOCC1CC1)c1cc2nc(-c3cccc4[nH]ncc34)nc(N3CCOCC3)c2s1	> 100 nM	< 100 nM	< 1000 nM	> 100 nM
CC(=O)Nc1cccc(-c2cc3nc(-c4cccc5[nH]ncc45)nc(N4CCOCC4)c3s2)c1	> 100 nM	< 100 nM	< 1000 nM	< 100 nM
CS(=O)(=O)c1cccc(-c2cc3nc(-c4cnc5[nH]ccc5c4)nc(N4CCOCC4)c3s2)c1	< 100 nM	< 100 nM	< 1000 nM	< 100 nM
c1ccc(-c2cc3nc(-c4cccc5[nH]ncc45)nc(N4CCOCC4)c3o2)cc1	> 100 nM	> 100 nM	< 1000 nM	< 100 nM
OC1(c2cc3nc(-c4cccc5[nH]ncc45)nc(N4CCOCC4)c3s2)CCC1	> 100 nM	< 100 nM	< 1000 nM	> 100 nM
COC/C=C/c1cc2nc(-c3cccc4[nH]ncc34)nc(N3CCOCC3)c2s1	> 100 nM	< 100 nM	< 1000 nM	< 100 nM
O=S(=O)(Nc1cccc(O)c1)c1cc2nc(-c3cccc4[nH]ncc34)nc(N3CCOCC3)c2s1	> 100 nM	< 100 nM	< 1000 nM	< 100 nM
CN(C)Cc1cc2nc(-c3cccc4[nH]ncc34)nc(N3CCOCC3)c2s1	> 100 nM	< 100 nM	< 1000 nM	< 100 nM
CN(C)C(=O)c1cc2nc(-c3cccc4[nH]ncc34)nc(N3CCOCC3)c2s1	> 100 nM	< 100 nM	< 1000 nM	> 100 nM
CCNC(=O)c1cc2nc(-c3cccc4[nH]ncc34)nc(N3CCOCC3)c2s1	> 100 nM	> 100 nM	< 1000 nM	> 100 nM
COc1ccc(NCc2cc3nc(-c4cccc5[nH]ncc45)nc(N4CCOCC4)c3s2)cn1	> 100 nM	< 100 nM	< 1000 nM	> 100 nM

Other lines, results leading:

IC50 (PIK3CD (Human))	IC50 (PIK3CG (human))	IC50 (PIK3CA (human))	IC50 (PIK3CB (Human))	Compound
> 100 nM	< 100 nM	< 1000 nM	< 100 nM	CNC(=O)c1cccc(-c2cc3nc(-c4cccc5[nH]ncc45)nc(N4CCOCC4)c3s2)c1
> 100 nM	< 100 nM	< 1000 nM	> 100 nM	O=C(NCc1cc2nc(-c3cccc4[nH]ncc34)nc(N3CCOCC3)c2s1)N1CCOCC1
> 100 nM	< 100 nM	< 1000 nM	> 100 nM	c1cc(-c2nc(N3CCOCC3)c3sc(-c4cn[nH]c4)cc3n2)c2cn[nH]c2c1
> 100 nM	< 100 nM	< 1000 nM	< 100 nM	O=S(=O)(NCCN1CCCCC1)c1cc2nc(-c3cccc4[nH]ncc34)nc(N3CCOCC3)c2s1
< 100 nM	< 100 nM	< 1000 nM	< 100 nM	Cc1c(-c2cccc(S(C)(=O)=O)c2)sc2c(N3CCOCC3)nc(-c3cnc4[nH]ccc4c3)nc12
> 100 nM	< 100 nM	< 1000 nM	< 100 nM	CC(C)(O)c1cc2nc(-c3cnc4[nH]ccc4c3)nc(N3CCOCC3)c2s1
> 100 nM	< 100 nM	< 1000 nM	< 100 nM	OCc1cccc(-c2cc3nc(-c4cccc5[nH]ncc45)nc(N4CCOCC4)c3s2)c1
> 100 nM	> 100 nM	< 1000 nM	< 100 nM	NCC(=O)Nc1cccc(-c2cc3nc(-c4cccc5[nH]ncc45)nc(N4CCOCC4)c3s2)c1
< 100 nM	< 100 nM	< 1000 nM	< 100 nM	Nc1nc(-c2cc3nc(-c4cnc5[nH]ccc5c4)nc(N4CCOCC4)c3s2)cs1
< 100 nM	< 100 nM	< 1000 nM	< 100 nM	CN(Cc1cc2c(N3CCOCC3)nc(-c3cnc4[nH]ccc4c3)nc2s1)S(C)(=O)=O
> 100 nM	> 100 nM	< 1000 nM	> 100 nM	CN(Cc1cc2nc(-c3cccc4[nH]ncc34)nc(N3CCOCC3)c2s1)C(=O)c1ccccc1
> 100 nM	< 100 nM	< 1000 nM	< 100 nM	CC(C)(O)c1cc2nc(-c3cccc4[nH]ccc34)nc(N3CCOCC3)c2s1
> 100 nM	< 100 nM	< 1000 nM	< 100 nM	CS(=O)(=O)c1cccc(-c2cc3nc(-c4cccc5[nH]ncc45)nc(N4CCOCC4)c3s2)c1
< 100 nM	< 100 nM	< 1000 nM	< 100 nM	Cc1c(-c2cccc(S(C)(=O)=O)c2)sc2c(N3CCOCC3)nc(-c3cccc4[nH]ncc34)nc12
> 100 nM	< 100 nM	< 1000 nM	> 100 nM	CS(=O)(=O)N1CCC(C(O)c2cc3nc(-c4cccc5[nH]ncc45)nc(N4CCOCC4)c3s2)CC1 (centres undefined)
> 100 nM	< 100 nM	< 1000 nM	< 100 nM	C[C@H](O)CNC(=O)c1cccc(-c2cc3nc(-c4cccc5[nH]ncc45)nc(N4CCOCC4)c3s2)c1
> 100 nM	< 100 nM	< 1000 nM	< 100 nM	O=C(O)c1cccc(-c2cc3nc(-c4cccc5[nH]ncc45)nc(N4CCOCC4)c3s2)c1
